Data published in patent US20180250306A1, “ALDEHYDE CONJUGATES AND USES THEREOF” (ALDEYRA THERAPEUTICS, INC., priority 2015, published 2018).

Experiments:
[1] = Consumption of 4HNE over time (HPLC, 254 nm); settings: for Consumption of 4HNE, ranking, 7 Hours / Consumption of 4HNE, ranking, 23 Hours: rank from most effective (1) to least; for Consumption of 4HNE, ranking, 23 Hours: ranks 1-4 essentially identical; for decrease in HNE relative to corresponding increase in adduct: 1 week time period
From the text: 5 of 6 samples show consumption of 4HNE. One sample (2-(3-aminoquinolin-2-yl)propan-2-ol) overlaps 4HNE HPLC peak using current method. Best fit lines over this period give poorer fit to data than product formation data. Rate of 4HNE consumption can be used as an approximation of binding kinetics. […] The data were used to rank relatively each of the samples examined, including NS-2 but excluding 2-(3-aminoquinolin-2-yl)propan-2-ol.

[2] = Aldehyde adduct formation over time (product HPLC peak); settings: for Formation of Product, ranking, 7 Hours / Formation of Product, ranking, 23 Hours: rank from most effective (1) to least
Method: It is not possible to conclude if this is the result of poor dissociation (from cyclodextrin) or poor interaction with the aldehyde. Best fit lines over this period give excellent fit to data. […] It can be used to relatively rank each of the samples examined, including NS2. The data were first evaluated over a 7 h time window.

SMILES	Gradient of 4HNE consumption ([1]; 23 h)	Gradient of 4HNE consumption ([1]; first 7 h, analysis at 254 nm)	Consumption of 4HNE, ranking, 7 Hours [1]	Consumption of 4HNE, ranking, 23 Hours [1]	Gradient of product HPLC peak increase (rate of adduct formation) ([2]; 7 h time window)	Gradient of product HPLC peak increase (rate of adduct formation) ([2]; 23 h time window)	Formation of Product, ranking, 7 Hours [2]	Formation of Product, ranking, 23 Hours [2]	decrease in HNE relative to corresponding increase in adduct [1]
CC(C)(O)c1nc2cccc(Cl)c2cc1N [2-(3-amino-5-chloroquinolin-2yl)propan-2-ol]	(Gradient −0.04,	(Gradient −0.05,	3	2	(Gradient 0.86,	(Gradient 0.44,	6	6	–
CC(C)(O)c1nc2ccc(Br)cc2cc1N [2-(3-amino-6-bromoquinolin-2-yl)propan-2-ol]	(Gradient −0.04,	(Gradient −0.04,	4	4	(Gradient 1.63,	(Gradient 1.16,	4	4	–
CC(C)(O)c1nc2cc(Cl)ccc2cc1N [2-(3-amino-7-chloroquinolin-2-yl)propan-2-ol]	(Gradient −0.05,	(Gradient −0.06,	2	1	(Gradient 2.02,	(Gradient 1.21,	3	3	greater
CC(C)(O)c1nc2c(Cl)cccc2cc1N [2-(3-amino-8-chloroquinolin-2-yl)propan-2-ol]	(Gradient −0.02,	(Gradient −0.01,	5	5	(Gradient 1.18,	(Gradient 0.81,	5	5	greater
CC(C)(O)c1nc2ccccc2cc1N [2-(3-aminoquinolin-2-yl)propan-2-ol]	–	–	–	–	(Gradient 3.68,	(Gradient 1.99,	1	1	–
